Assay results reported in ChEMBL document CHEMBL4680067, “Identification of LASSBio-1945 as an inhibitor of SARS-CoV-2 main protease (MPRO) through in silico screening supported by molecular docking and a fragment-based pharmacophore model” (RSC Med Chem, 2021).

Tests used:
[1] = system: Severe acute respiratory syndrome coronavirus 2; experiment: Inhibition of SARS CoV-2 main protease at 50 uM by rapidfire high-throughput mass spectrometry relative to control
[2] = Inhibition of SARS CoV-2 main protease; set-up: species or system Severe acute respiratory syndrome coronavirus 2
[3] = Inhibition of SARS CoV-2 main protease by rapidfire high-throughput mass spectrometry; set-up: species or system Severe acute respiratory syndrome coronavirus 2
SARS-CoV-2 = experiment: Antiviral activity against SARS CoV-2 infected in African green monkey Vero cells assessed as inhibition of viral replication measured after 72 hrs by qRT-PCR analysis; format: functional, organism-based; settings: Severe acute respiratory syndrome coronavirus 2, Vero

## Cc1[nH]c2ccccc2c1/C=N/N(C)C(=O)c1ccc2c(c1)OCO2
[1]
  inhibition: -6.66%

## COc1ccc(/N=C2/C(=O)N(Cc3ccc4ccccc4c3)c3ccc(C(N)=O)cc32)cc1
[2]
  IC50: 17 µM

## O=C(Cc1cccc(Cl)c1)Nc1cccnc1
[3]; read-out: IC50
  IC50: 53.7 µM

## Cc1ncccc1NC(=O)Cc1cccc(Cl)c1
[3]
  IC50: Not Active

## Cc1csc(C(=O)N/N=C/c2cccnc2)c1N
[1]
  inhibition: -6.32%

## Cc1cc(C(=O)N[C@@H](C)C(=O)N[C@H](C(=O)N[C@@H](CC(C)C)C(=O)N[C@H](/C=C/C(=O)OCc2ccccc2)C[C@@H]2CCNC2=O)C(C)C)no1
SARS-CoV-2
  EC50: 16.8 µM

## Cc1ccc(NC(=O)Cc2cccc(Cl)c2)cn1
[3]
  IC50: Not Active

## O=C(CNc1c(-c2ccccc2)nc2ccccn12)N/N=C/c1cccc2ccccc12
[1]
  inhibition: 7.53%

## O=C(Nc1ccccc1)Nc1cnc2ccc([N+](=O)[O-])cc2n1
[1]
  inhibition: 0.77%

## CCCc1cc2c(cc1S(=O)(=O)N1CCN(c3ccccc3)CC1)OCO2
[1]
  inhibition: 68.3%
[3]; read-out: IC50
  IC50: 16 µM
